Data on 2 compounds can be found in ChEMBL document CHEMBL4837181 (Eur J Med Chem, 2020).

Data set [1] can be described thus: AUC (0 to 24 hrs) at steady state in mouse at 62 mg/kg administered bid. As to conditions: in vivo; call rule not given here. Further details: time < 24 hr, dose 62 mg/kg. It counts as ADME, organism-based.
Data set [2] in a line: Half life in male cynomolgus monkey at 225 mg/kg, po measured on day 1. As to conditions: in vivo. It is filed as ADME, organism-based, Macaca fascicularis.
A short description of data set [3]: Change in normalised AUC (infinity) in rat at 50 mg/kg, po measured upto 72 hrs by LC-MS/MS analysis. It counts as ADME, organism-based. The settings on record: in vivo.
Data set [4] is described as follows: Solubility of compound at pH 7.4. It is filed as physicochemical. As to conditions: buffer.
Data set [5] is described as follows: Half life in female cynomolgus monkey at 225 mg/kg, po measured on day 1. It counts as ADME, organism-based, Macaca fascicularis. As to conditions: in vivo.
Data set [6] in a line: Tmax in female cynomolgus monkey at 225 mg/kg, po measured on day 1. It is filed as ADME, organism-based, Macaca fascicularis. The settings on record: in vivo.
Data set [7] is described as follows: Chemical stability of compound in simulated intestinal fluid assessed as compound remaining at 5 uM measured after 3 hrs by LC-MS/MS analysis. The settings on record: read-out: Stabilty. It is filed as ADME, physicochemical.
The nature of data set [8]: Toxicity in rat assessed as decreased food assumption at 150 to 180 mg/kg, po. It counts as organism-based. As to conditions: in vivo, dose 150-180 mg/kg.
Data set [9] concerns the target Cytochrome P450 3A4 (Homo sapiens, UniProt P08684). Nature of the data set: Direct inhibition of CYP3A4 in human hepatocytes. It is filed as ADME, cell-based, Hepatocyte.
Data set [10] in a line: Toxicity in rat assessed as labored breathing at 150 to 180 mg/kg, po. It counts as organism-based. As to conditions: in vivo, dose 150-180 mg/kg.
Data set [11] is described as follows: Chemical stability of compound in 0.1 N aqueous HCl buffer assessed as compound remaining at pH 1 at 5 uM measured after 1.5 hrs by LC-MS/MS analysis. The settings on record: pH 1, 1.5 h. It is filed as physicochemical.
Data set [12] in a line: Protein binding in cynomolgus monkey plasma. It counts as ADME, cell-free, Macaca fascicularis. As to conditions: read-out: PPB.
For data set [13], the target named is T1, Broad substrate specificity ATP-binding cassette transporter ABCG2 (Homo sapiens, UniProt Q9UNQ0).
T1 sequence (Q9UNQ0 whole entry): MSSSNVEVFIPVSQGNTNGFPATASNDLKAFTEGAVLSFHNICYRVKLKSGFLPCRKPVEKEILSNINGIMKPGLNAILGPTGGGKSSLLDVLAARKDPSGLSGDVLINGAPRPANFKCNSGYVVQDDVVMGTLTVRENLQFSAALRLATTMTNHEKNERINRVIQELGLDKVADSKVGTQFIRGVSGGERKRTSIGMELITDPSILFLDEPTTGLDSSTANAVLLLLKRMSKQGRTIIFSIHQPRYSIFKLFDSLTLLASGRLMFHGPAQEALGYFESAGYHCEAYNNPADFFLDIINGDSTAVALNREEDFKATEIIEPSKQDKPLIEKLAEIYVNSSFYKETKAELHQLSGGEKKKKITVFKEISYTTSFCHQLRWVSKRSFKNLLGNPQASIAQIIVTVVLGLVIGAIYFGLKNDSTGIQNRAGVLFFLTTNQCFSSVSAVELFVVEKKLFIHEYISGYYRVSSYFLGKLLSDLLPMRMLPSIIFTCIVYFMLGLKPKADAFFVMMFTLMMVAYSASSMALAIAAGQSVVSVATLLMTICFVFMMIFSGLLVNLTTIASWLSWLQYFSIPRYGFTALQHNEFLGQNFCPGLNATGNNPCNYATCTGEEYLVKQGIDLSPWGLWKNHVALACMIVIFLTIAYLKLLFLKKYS
Description: Inhibition of BCRP in human Caco-2 cells. It is filed as cell-based.

The nature of data set [14]: Stability in rat plasma assessed as parent compound remaining measured after 2 hrs by LC-MS/MS analysis. It is filed as ADME, cell-free. The settings on record: read-out: Stabilty.
Data set [15] can be described thus: Toxicity in rat assessed as change in behavioral parameter. The settings on record: in vivo.
A short description of data set [16]: Protein binding in Beagle dog plasma. It is filed as ADME, cell-free, Canis lupus familiaris. The settings on record: read-out: PPB.
Data set [17] has as its target T2, Cytochrome P450 2C8 (Homo sapiens, UniProt P10632).
T2 sequence (P10632 whole entry): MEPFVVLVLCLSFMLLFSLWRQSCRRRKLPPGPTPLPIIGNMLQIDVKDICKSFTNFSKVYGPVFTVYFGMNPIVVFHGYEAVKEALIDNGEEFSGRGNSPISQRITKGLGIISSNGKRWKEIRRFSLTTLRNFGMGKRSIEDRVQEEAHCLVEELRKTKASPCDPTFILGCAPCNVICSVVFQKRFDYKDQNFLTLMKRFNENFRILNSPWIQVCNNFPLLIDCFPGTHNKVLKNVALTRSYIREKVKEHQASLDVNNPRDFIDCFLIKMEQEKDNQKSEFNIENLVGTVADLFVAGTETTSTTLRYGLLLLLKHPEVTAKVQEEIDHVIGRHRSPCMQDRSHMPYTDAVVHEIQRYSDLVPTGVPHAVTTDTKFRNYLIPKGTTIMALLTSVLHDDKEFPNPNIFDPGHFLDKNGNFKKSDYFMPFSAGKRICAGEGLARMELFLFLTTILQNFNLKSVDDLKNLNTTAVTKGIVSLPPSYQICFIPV
Nature of the data set: Inhibition of CYP2C8 in human hepatocytes. It is filed as ADME, cell-based, Hepatocyte.

Data set [18] can be described thus: Oral bioavailability in female cynomolgus monkey at 75 mg/kg. It counts as ADME, organism-based, Macaca fascicularis. The settings on record: in vivo.
Data set [19] can be described thus: Chemical stability of compound in simulated intestinal fluid assessed as compound remaining at 5 uM measured after 24 hrs by LC-MS/MS analysis. It counts as ADME, physicochemical. As to conditions: read-out: Stabilty.
A short description of data set [20]: Chemical stability of compound in PBS buffer assessed as compound remaining at pH 7.4 at 5 uM measured after 6 hrs by LC-MS/MS analysis. It counts as physicochemical. As to conditions: read-out: Stabilty.
Data set [21] is described as follows: Drug metabolism in rats assessed as ratio of indoximod to parent compound at 20 to 900 mg/kg, po administered as single dose. It counts as ADME, organism-based. The settings on record: rat, in vivo, dose 20-900 mg/kg.
Data set [22] can be described thus: Cmax in female rat at 180 mg/kg, po BID measured on day 28. It is filed as ADME, organism-based. Further details: route oral, dose 180 mg/kg. As to conditions: in vivo.
For data set [23], the target named is T3, Solute carrier organic anion transporter family member 1B1 (Homo sapiens, UniProt Q9Y6L6).
T3 sequence (Q9Y6L6 whole entry): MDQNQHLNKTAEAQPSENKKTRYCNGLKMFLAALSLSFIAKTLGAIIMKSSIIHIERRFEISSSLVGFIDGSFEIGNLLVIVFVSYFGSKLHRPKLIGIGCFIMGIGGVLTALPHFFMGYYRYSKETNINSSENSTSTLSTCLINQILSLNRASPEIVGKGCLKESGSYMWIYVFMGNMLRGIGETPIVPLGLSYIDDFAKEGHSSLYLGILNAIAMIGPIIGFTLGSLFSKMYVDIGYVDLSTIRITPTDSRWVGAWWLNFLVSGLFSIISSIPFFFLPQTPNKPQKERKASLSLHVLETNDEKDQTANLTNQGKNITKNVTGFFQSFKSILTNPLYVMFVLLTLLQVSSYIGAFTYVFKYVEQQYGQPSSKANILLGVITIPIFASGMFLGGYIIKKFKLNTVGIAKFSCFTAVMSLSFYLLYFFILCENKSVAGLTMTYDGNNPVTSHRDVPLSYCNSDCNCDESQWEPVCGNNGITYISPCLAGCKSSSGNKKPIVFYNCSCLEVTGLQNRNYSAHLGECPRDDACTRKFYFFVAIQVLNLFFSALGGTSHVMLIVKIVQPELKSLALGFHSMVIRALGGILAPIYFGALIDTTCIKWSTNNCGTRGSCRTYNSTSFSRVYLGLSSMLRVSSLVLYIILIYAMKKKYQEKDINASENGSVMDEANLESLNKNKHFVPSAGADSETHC
Description: Inhibition of OATP1B1 (unknown origin) expressed in HEK293 cells. It is filed as cell-based.

Chain of Cytochrome P450 3A4 (P08684 whole entry): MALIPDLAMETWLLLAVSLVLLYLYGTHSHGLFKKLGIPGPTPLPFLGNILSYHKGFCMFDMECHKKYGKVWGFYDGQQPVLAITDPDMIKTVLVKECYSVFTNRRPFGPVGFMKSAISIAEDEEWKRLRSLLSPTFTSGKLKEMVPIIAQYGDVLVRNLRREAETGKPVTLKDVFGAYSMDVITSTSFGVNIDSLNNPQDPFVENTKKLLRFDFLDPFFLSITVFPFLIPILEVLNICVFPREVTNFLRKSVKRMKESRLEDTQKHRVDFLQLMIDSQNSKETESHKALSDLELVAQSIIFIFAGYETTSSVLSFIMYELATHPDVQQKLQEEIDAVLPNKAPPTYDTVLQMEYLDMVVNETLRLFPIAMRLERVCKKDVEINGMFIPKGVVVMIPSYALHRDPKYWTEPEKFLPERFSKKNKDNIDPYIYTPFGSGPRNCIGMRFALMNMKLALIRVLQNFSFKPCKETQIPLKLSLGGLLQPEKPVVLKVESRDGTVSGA

Take `Cn1cc(C[C@@H](N)C(=O)O)c2ccccc21` [INDOXIMOD]: the AUC (as a rule, concentration integrated over time) at 24 h in [1] is above 170 µM·h. The half-life (as a rule, how long it takes for the measured level to halve) was 2.9 h in [2] and 3.8 h in [5]. For the same compound, the Activity in data set [3] worked out at 0%. In addition, the solubility (commonly how much of the substance goes into solution per volume) in [4] was below 2 mg/mL. Moreover, the Tmax (commonly the time from dosing to the highest level) in data set [6] worked out at 1 h.
`CCOC(=O)[C@@H](Cc1cn(C)c2ccccc12)NC(=O)[C@@H](N)CC(C)C.Cl`: the remaining at 3 h, 5 µM in [7] was 91%. For the same compound, the results for the Activity entry in data set [8], in data set [10] and in [15] were “Toxic”, “Toxic” and “Non-Toxic”, respectively. Also, the IC50 (usually the concentration needed to halve the response being measured) in [9] was 5 µM; in data set [17], above 50 µM; in data set [23], above 50 µM. Further, in [11], the Stabilty came out at 90%. The fraction unbound in data set [12] and in data set [16] was 0.5 in each case. Further, the “inhibition (INH)” value in data set [13] is recorded as “Not Active”. The remaining at 2 h in [14] was found to be 0%. Besides, the bioavailability (commonly dose-corrected exposure relative to a reference, in per cent) in data set [18] came out at 50.1%. For the same compound, the remaining at 24 h, 5 µM in [19] was 30%. For the same compound, the remaining at 6 h, 5 µM in data set [20] was found to be 92%. For the same compound, the Ratio in data set [21] is given as above 39000. The Cmax (commonly the peak of the concentration-time curve) in data set [22] turned out to be 170 µM.
